Results on three compounds are retold here after patent US20200390722A1, “COMPOSITIONS AND METHODS FOR THE REMOVAL OF EAR WAX” (Specialty Drug and Device, LLC, priority 2016, published 2020).

Test [1] is described as follows: Test-tube comparison of SFA (F6H8) and common remedies on about 100 mg dog cerumen (Example 2). On the set-up: key to Effects on Ear Wax (Cerumen) Samples: NC, No Change; BP, Bubbles Produced; SG, Softening; FD, Fully Dispersed. To be noted: for Effects on Ear Wax (Cerumen) Samples: Dog; for Visible changes to ear wax samples (in words): dog, 30 seconds with gentle agitation. Here is the method:
(§1) Approximately 100 mg of human ear wax was weighed into each of four small test tubes and numbered 1-4. In a second series, approximately 100 mg of animal cerumen from dogs was placed into four different test tubes and numbered 5-8. About 1 ml of the following material was then added to the respective dishes as follows: (1) to tubes #1 and 5, F6H8; (2) to tubes #2 and 6, hydrogen peroxide, 3%; (3) to tubes #3 and 7, carbamide peroxide, 6.5% (Murine Earwax Removal Drops); and (4) to tubes #4 and 8, sodium bicarbonate, 5% (prepared by dissolved 5 grams of sodium bicarbonate in 100 ml of distilled water. Results of these studies are presented in Table 1, below.

Test [2] in a line: Test-tube comparison of SFA (F6H8) and common remedies on about 100 mg human ear wax (Example 2). Further details: key to Effects on Ear Wax (Cerumen) Samples: NC, No Change; BP, Bubbles Produced; SG, Softening; FD, Fully Dispersed. To be noted: for Effects on Ear Wax (Cerumen) Samples: Human; for Visible changes to ear wax samples (in words): human, 30 seconds with gentle agitation. Here is the method:
as §1

Test [3] can be described thus: Cotton bud laden with dog ear wax swirled through about 1 ml F6H8 (initial studies, Example 1). To be noted: dog cerumen on cotton bud swirled or shaken in F6H8; hair particles etc. not dissolved. An excerpt: (§2) In these studies, which are reflected below in Table 1, samples of ear wax were collected on cotton buds from animals or humans. A portion of each sample was placed into a small tube containing an SFA (F6H8) and gently shaken.
(§3) The invention is based in substantial part upon initial studies that provided surprising results. A small quantity of F6H8 semi-fluorinated alkane was placed into each of 5 test tubes. Samples of cerumen from animal or human ears were collected on cotton buds. Sufficient ear wax was collected that quantities of the material were visible on cotton buds used to harvest the materials. Separate cotton buds were used to collect cerumen from four dogs and two humans. In a step-wise manner, one cotton bud, laden with ear wax, was gently swirled through a single test tube containing an aliquot of F6H8 SFA. The study was repeated three times for cotton buds with ear wax from dogs and a second series of two tests, as previously described, were carried-out with cotton buds laden with human cerumen. […] Importantly, in the study the cerumen was dissolved by the SFA but the other matter (hair particles, etc.) were not dissolved. […] Such products include MURINE® Ear Drops, DEBROX® Earwax Removal, Flents Earwax Remover, and CERUMENEX® and also includes patents for compositions containing glycerin, glycols, peroxide plus urea and cyclodextrin containing compositions. […]

Test [4] has as its system accumulation of ear wax. The test can be described thus: Prophylaxis to prevent or retard accumulation of ear wax, one human (Example 4). Type of test: in vivo. As for the experimental part: (§4) The effectiveness of F6H8 as a prophylaxis to prevent or retard accumulation of ear wax was evaluated in one human and one dog. The ear canal of the person and the canine were cleaned thoroughly prior to the evaluation of prophylaxis with SFA. Then, on a regular basis (five of seven days on average), 20-25 ul of F6H8 were applied to a cotton bud and the right ear only of each subjects was gently swabbed for about 15 seconds. In each instance, the contralateral ear served as a control in this study. […] Visual observation was confirmed by using a clean cotton bud to swab each ear of both subjects for 10-15 seconds.

Test [5] in a line: Cotton bud laden with human ear wax swirled through about 1 ml F6H8 (initial studies, Example 1). To be noted: human cerumen on cotton bud swirled or shaken in F6H8; hair particles etc. not dissolved.
Excerpt: as §2, §3

The test system of test [6] is accumulation of ear wax. Description: Prophylaxis to prevent or retard accumulation of ear wax, one dog (Example 4). It counts as in vivo. As for the experimental part:
as §4

Setting [7] is: 30 Seconds, about 1 ml on approx. 100 mg cerumen, gentle agitation.
The mark [8] stands for this setting: 30 Seconds, about 1 ml on approx. 100 mg ear wax, gentle agitation.
Where [9] appears, read: 20-25 ul on cotton bud, about five of seven days, end of three month trial.
The mark [10] stands for this setting: swab 10-15 seconds at end of three month trial.

Structures are written as SMILES.

Regarding `OO` [Hydrogen Peroxide, 3%, hydrogen peroxide], the “Effects on Ear Wax (Cerumen) Samples” value in test [1] (5 Minutes) was “BP”; in test [1] (15 Minutes), “SG and BP,”; in test [1] (setting [7]) it was “NC”; in test [2] (5 Minutes), “BP”; in test [2] (15 Minutes), “SG and BP,”; in test [2] (setting [8]) it was “NC”. The “Visible changes to ear wax samples (in words)” value in test [1] and in test [2] was “failed to produce visible changes” each time.

With `CCCCCCCCC(F)(F)C(F)(F)C(F)(F)C(F)(F)C(F)(F)C(F)(F)F` [SFA (F6H8)], the “Dissolution of cerumen from the ear wax sample (in words)” value in test [3] and in test [5] was “dissolved completely” each time. In addition, the “Visual observation of treated right ear vs untreated contralateral ear” value in the test on accumulation of ear wax [4] (setting [9]) is “visibly cleaner and contained less ear wax and associated hair and other debris”; in the test on accumulation of ear wax [6] (setting [9]), “visibly cleaner and contained less ear wax and associated hair and other debris”. The “Ear wax collected by clean cotton bud from treated right ear vs untreated left ear” value in the test on accumulation of ear wax [4] (setting [10]) and in the test on accumulation of ear wax [6] (setting [10]) was “collected less ear wax” in each case. Further, the “Effects on Ear Wax (Cerumen) Samples” value in test [1] (5 Minutes), in test [1] (15 Minutes), in test [1] (setting [7]), in test [2] (5 Minutes), in test [2] (15 Minutes) and in test [2] (setting [8]) was “FD” in each case.

With `O=C([O-])O.[Na+]` [Sodium Bicarbinate, 5%, sodium bicarbonate], the “Effects on Ear Wax (Cerumen) Samples” value in test [1] (5 Minutes), in test [1] (15 Minutes), in test [1] (setting [7]), in test [2] (5 Minutes), in test [2] (15 Minutes) and in test [2] (setting [8]) was “NC” each time. Moreover, the “Visible changes to ear wax samples (in words)” value in test [1] and in test [2] was “failed to produce visible changes” each time.
